In ChEMBL document CHEMBL6083183, “Discovery and Hit to Lead Optimization of Macrocyclic Peptides as Novel Tropomyosin Receptor Kinase A Antagonists” (J Med Chem, 2024):
Calls of active or inactive are those of the source. No cut-off for these calls is given here. Bridge positions count the residues as written; N and C are the ends. Square brackets hold non-standard residues; d marks the D form. Peptide text beside a SMILES is read from it. NMeY = CN[C@@H](Cc1ccc(O)cc1)C(=O)O; NMeF = CN[C@@H](Cc1ccccc1)C(=O)O; NMeN = CN[C@@H](CC(N)=O)C(=O)O; NMeL = CN[C@@H](CC(C)C)C(=O)O; NMeS = CN[C@@H](CO)C(=O)O; Sar = CNCC(=O)O

Key:
[1] = Stability in rat serum assessed as half-life incubated for 22 to 24 hrs by LC-MS/MS method; assay type: ADME, cell-free; conditions: time 22-24 hrs
[2] = biological target: T1, High affinity nerve growth factor receptor (Homo sapiens, UniProt P04629); test: Inhibition of human TrkA assessed as beta-galactosidase activity pretreated with NGF followed by […] and measured after 180 mins by pathhunter assay
[3] = Stability in human serum assessed as half-life incubated for 22 to 24 hrs by LC-MS/MS method; assay type: ADME, cell-free; conditions: time 22-24 hrs
Rattus norvegicus = test: Analgesic activity in iv dosed rat Brennan's incision pain model assessed as reduction in pain measured after 15 mins; assay type: functional, organism-based; conditions: dose 0.5-1 mg/kg
[4] = biological target: T1, High affinity nerve growth factor receptor; test: Binding affinity to Fc-tagged human TrkA extracellular domain by SPR method
Homo sapiens = species on record: Homo sapiens; test: Inhibition of Fc-tagged human TrkA extracellular domain to biotinylated human NGF protein-protein interaction preincubated for 1 hr followed by NGF addition and measured after 3 hrs by ELISA; conditions: time 4.0 hrs
[5] = Total clearance in Sprague-Dawley rat at 1 umol/kg, iv administered as cassette dose measured upto 6 hrs by LC-MS/MS method; assay type: ADME, organism-based; conditions: in vivo, dose 1 µmol/kg
[6] = AUC in Sprague-Dawley rat at 1 umol/kg, iv administered as cassette dose measured upto 6 hrs by LC-MS/MS method; assay type: ADME, organism-based; conditions: in vivo, dose 1 µmol/kg

T1 sequence (P04629 whole entry): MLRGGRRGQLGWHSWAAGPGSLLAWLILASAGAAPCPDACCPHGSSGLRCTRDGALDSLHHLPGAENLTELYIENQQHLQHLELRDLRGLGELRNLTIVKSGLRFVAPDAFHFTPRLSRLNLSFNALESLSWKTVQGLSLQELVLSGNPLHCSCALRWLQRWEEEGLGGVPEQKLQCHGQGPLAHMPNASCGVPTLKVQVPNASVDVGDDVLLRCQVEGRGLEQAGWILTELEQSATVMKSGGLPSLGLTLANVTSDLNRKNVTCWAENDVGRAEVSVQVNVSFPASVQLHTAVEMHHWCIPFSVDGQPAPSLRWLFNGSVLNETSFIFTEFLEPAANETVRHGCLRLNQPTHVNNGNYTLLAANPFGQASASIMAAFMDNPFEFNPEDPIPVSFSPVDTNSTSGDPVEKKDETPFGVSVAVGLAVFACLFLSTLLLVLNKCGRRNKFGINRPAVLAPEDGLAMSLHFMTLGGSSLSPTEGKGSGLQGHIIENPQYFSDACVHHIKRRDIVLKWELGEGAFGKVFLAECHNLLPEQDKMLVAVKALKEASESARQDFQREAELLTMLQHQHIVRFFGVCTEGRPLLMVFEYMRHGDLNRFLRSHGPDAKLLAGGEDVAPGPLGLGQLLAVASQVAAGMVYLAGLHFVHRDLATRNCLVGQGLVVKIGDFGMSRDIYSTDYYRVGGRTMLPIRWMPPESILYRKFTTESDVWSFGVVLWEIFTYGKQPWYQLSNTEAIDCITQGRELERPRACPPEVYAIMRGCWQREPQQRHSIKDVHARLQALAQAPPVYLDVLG

Compound | IC50 [2] [nM] | further results
CC(C)C[C@@H]1NC(=O)[C@H](CCCNC(=N)N)NC(=O)CNC(=O)[C@H](Cc2ccccc2)N(C)C(=O)CNC(=O)[C@H](Cc2c[nH]c3ccccc23)NC(=O)[C@H](Cc2ccc(O)cc2)NC(=O)[C@H](CCC(=O)O)NC(=O)[C@H](C(C)C)NC(=O)[C@H](CO)NC(=O)[C@H](CCCCN)NC(=O)[C@H](Cc2ccccc2)NC(=O)CSC[C@@H](C(=O)N(C)CC(N)=O)NC(=O)[C@H](Cc2c[nH]cn2)NC(=O)[C@H](CC(=O)O)NC(=O)[C@H](Cc2ccc(O)cc2)NC(=O)[C@H](Cc2ccc(O)cc2)NC(=O)[C@H](CCCCN)NC1=O ({CH2CO}-FKSVEYWG[NMeF]GRLKYYDHC[Sar]-NH2; thioether N-18) | 35 | half-life [1]: 1920 min; half-life [3]: 150 min
CN1CC[C@]23c4c5ccc(O)c4O[C@H]2[C@@H](O)C=C[C@H]3[C@H]1C5 | – | Activity (Rattus norvegicus): Dose-dependent-effect
CC(C)C[C@@H]1NC(=O)[C@H](CC(N)=O)NC(=O)CNC(=O)[C@H](Cc2ccccc2)N(C)C(=O)CNC(=O)[C@H](Cc2c[nH]c3ccccc23)NC(=O)[C@H](Cc2ccc(O)cc2)NC(=O)[C@H](C)NC(=O)[C@H](C(C)C)NC(=O)[C@H](CO)NC(=O)[C@H](CO)NC(=O)[C@H](Cc2ccccc2)NC(=O)CSC[C@@H](C(=O)NCC(N)=O)NC(=O)[C@H](Cc2c[nH]cn2)NC(=O)[C@H](CC(N)=O)NC(=O)[C@H](Cc2ccc(O)cc2)NC(=O)[C@H](Cc2ccc(O)cc2)NC(=O)[C@H](C(C)C)NC1=O ({CH2CO}-FSSVAYWG[NMeF]GNLVYYNHCG-NH2; thioether N-18) | 26 | –
CC[C@H](C)[C@@H]1NC(=O)CNC(=O)[C@H](Cc2ccc(O)cc2)NC(=O)[C@H](Cc2ccccc2)NC(=O)CNC(=O)[C@H](Cc2c[nH]cn2)NC(=O)[C@@H]2CCCN2C(=O)[C@H](Cc2ccc(O)cc2)NC(=O)[C@H](CC(C)C)NC(=O)[C@H](Cc2ccccc2)NC(=O)[C@H](Cc2ccccc2)NC(=O)CSC[C@@H](C(=O)NCC(N)=O)NC(=O)[C@H](C(C)C)NC1=O ({CH2CO}-FFLYPHGFYGIVCG-NH2; thioether N-13) | – | Kd [4]: 8.5 nM; inhibition (Homo sapiens): inactive
CC(C)C[C@@H]1NC(=O)[C@H](CC(N)=O)NC(=O)CNC(=O)[C@H](Cc2ccccc2)N(C)C(=O)CNC(=O)[C@H](Cc2c[nH]c3ccccc23)NC(=O)[C@H](Cc2ccc(O)cc2)NC(=O)[C@H](CO)NC(=O)[C@H](C(C)C)NC(=O)[C@H](CO)NC(=O)[C@H](CO)NC(=O)[C@H](Cc2ccccc2)NC(=O)CSC[C@@H](C(=O)NCC(N)=O)NC(=O)[C@H](Cc2c[nH]cn2)NC(=O)[C@H](CC(N)=O)N(C)C(=O)[C@H](Cc2ccc(O)cc2)NC(=O)[C@H](Cc2c[nH]c3ccccc23)NC(=O)[C@H](C(C)C)NC1=O ({CH2CO}-FSSVSYWG[NMeF]GNLVWY[NMeN]HCG-NH2; thioether N-18) | 48 | –
CC(C)C[C@@H]1NC(=O)[C@H](CC(N)=O)NC(=O)CNC(=O)[C@H](Cc2ccccc2)N(C)C(=O)CNC(=O)[C@H](Cc2c[nH]c3ccccc23)NC(=O)[C@H](Cc2ccc(O)cc2)NC(=O)[C@H](CO)NC(=O)[C@H](C(C)C)NC(=O)[C@H](CO)NC(=O)[C@H](CO)N(C)C(=O)[C@H](Cc2ccccc2)NC(=O)CSC[C@@H](C(=O)NCC(N)=O)NC(=O)[C@H](Cc2c[nH]cn2)NC(=O)[C@H](CC(N)=O)NC(=O)[C@H](Cc2ccc(O)cc2)NC(=O)[C@H](Cc2c[nH]c3ccccc23)NC(=O)[C@H](C(C)C)NC1=O ({CH2CO}-F[NMeS]SVSYWG[NMeF]GNLVWYNHCG-NH2; thioether N-18) | 13 | –
CC(C)C[C@H]1C(=O)N[C@@H](C(C)C)C(=O)N[C@@H](Cc2c[nH]c3ccccc23)C(=O)N[C@@H](Cc2ccc(O)cc2)C(=O)N[C@@H](CC(N)=O)C(=O)N[C@@H](Cc2c[nH]cn2)C(=O)N[C@H](C(=O)NCC(N)=O)CSCC(=O)N[C@@H](Cc2ccccc2)C(=O)N[C@@H](CO)C(=O)N[C@@H](CO)C(=O)N[C@@H](C(C)C)C(=O)N[C@@H](CO)C(=O)N[C@@H](Cc2ccc(O)cc2)C(=O)N[C@@H](Cc2c[nH]c3ccccc23)C(=O)NCC(=O)N(C)[C@@H](Cc2ccccc2)C(=O)NCC(=O)N[C@@H](CC(N)=O)C(=O)N1C ({CH2CO}-FSSVSYWG[NMeF]GN[NMeL]VWYNHCG-NH2; thioether N-18) | 81 | –
CC(C)C[C@@H]1NC(=O)[C@H](CC(N)=O)NC(=O)CNC(=O)[C@H](Cc2ccccc2)N(C)C(=O)CNC(=O)[C@H](Cc2c[nH]c3ccccc23)NC(=O)[C@H](Cc2ccc(O)cc2)NC(=O)[C@H](CO)NC(=O)[C@H](C(C)C)NC(=O)[C@H](CO)NC(=O)[C@H](CO)NC(=O)[C@H](Cc2ccccc2)NC(=O)CSC[C@@H](C(=O)NCC(N)=O)NC(=O)[C@H](Cc2c[nH]cn2)NC(=O)[C@H](CO)NC(=O)[C@H](Cc2ccc(O)cc2)NC(=O)[C@H](Cc2ccc(O)cc2)NC(=O)[C@H](C(C)C)NC1=O ({CH2CO}-FSSVSYWG[NMeF]GNLVYYSHCG-NH2; thioether N-18) | 186 | –
CC(C)C[C@@H]1NC(=O)[C@H](CC(N)=O)NC(=O)CNC(=O)[C@H](Cc2ccccc2)N(C)C(=O)CNC(=O)[C@H](Cc2c[nH]c3ccccc23)NC(=O)[C@H](Cc2ccc(O)cc2)NC(=O)[C@H](CO)NC(=O)[C@H](C(C)C)NC(=O)[C@H](CO)NC(=O)[C@H](CO)NC(=O)[C@H](Cc2ccccc2)NC(=O)CSC[C@@H](C(=O)NCC(N)=O)NC(=O)[C@H](Cc2cnc[nH]2)NC(=O)[C@H](CC(=O)O)NC(=O)[C@H](Cc2ccc(O)cc2)NC(=O)[C@H](Cc2ccc(O)cc2)NC(=O)[C@H](C(C)C)NC1=O ({CH2CO}-FSSVSYWG[NMeF]GNLVYYDHCG-NH2; thioether N-18) | 24 | –
CC(C)C[C@@H]1NC(=O)[C@H](CC(N)=O)NC(=O)CNC(=O)[C@H](Cc2ccccc2)N(C)C(=O)CNC(=O)[C@H](Cc2c[nH]c3ccccc23)NC(=O)[C@H](Cc2ccc(O)cc2)NC(=O)[C@H](CO)NC(=O)[C@H](C(C)C)NC(=O)[C@H](CO)NC(=O)[C@H](CO)NC(=O)[C@H](Cc2ccccc2)NC(=O)CSC[C@@H](C(=O)N(C)CC(N)=O)NC(=O)[C@H](Cc2c[nH]cn2)NC(=O)[C@H](CC(N)=O)NC(=O)[C@H](Cc2ccc(O)cc2)NC(=O)[C@H](Cc2c[nH]c3ccccc23)NC(=O)[C@H](C(C)C)NC1=O ({CH2CO}-FSSVSYWG[NMeF]GNLVWYNHC[Sar]-NH2; thioether N-18) | 15 | –
CC(C)C[C@@H]1NC(=O)[C@H](CC(N)=O)NC(=O)CNC(=O)[C@H](Cc2ccccc2)N(C)C(=O)CNC(=O)[C@H](Cc2c[nH]c3ccccc23)NC(=O)[C@H](Cc2ccc(O)cc2)N(C)C(=O)[C@H](CO)NC(=O)[C@H](C(C)C)NC(=O)[C@H](CO)NC(=O)[C@H](CO)NC(=O)[C@H](Cc2ccccc2)NC(=O)CSC[C@@H](C(=O)NCC(N)=O)NC(=O)[C@H](Cc2c[nH]cn2)NC(=O)[C@H](CC(N)=O)NC(=O)[C@H](Cc2ccc(O)cc2)NC(=O)[C@H](Cc2c[nH]c3ccccc23)NC(=O)[C@H](C(C)C)NC1=O ({CH2CO}-FSSVS[NMeY]WG[NMeF]GNLVWYNHCG-NH2; thioether N-18) | 22 | –
CC(C)C[C@@H]1NC(=O)[C@H](CC(N)=O)NC(=O)CNC(=O)[C@H](Cc2ccccc2)N(C)C(=O)CNC(=O)[C@H](Cc2c[nH]c3ccccc23)NC(=O)[C@H](Cc2ccc(O)cc2)NC(=O)[C@H](CO)NC(=O)[C@H](C(C)C)NC(=O)[C@H](CO)NC(=O)[C@H](CO)NC(=O)[C@H](Cc2ccccc2)NC(=O)CSC[C@@H](C(=O)NCC(N)=O)NC(=O)[C@H](Cc2c[nH]cn2)NC(=O)[C@H](CC(N)=O)NC(=O)[C@H](Cc2ccc(O)cc2)NC(=O)[C@H](Cc2c[nH]c3ccccc23)NC(=O)[C@H](C(C)C)NC1=O ({CH2CO}-FSSVSYWG[NMeF]GNLVWYNHCG-NH2; thioether N-18) | 41 | –
CC(C)C[C@@H]1NC(=O)[C@H](CCCNC(=N)N)NC(=O)CNC(=O)[C@H](Cc2ccccc2)N(C)C(=O)CNC(=O)[C@H](Cc2c[nH]c3ccccc23)NC(=O)[C@H](Cc2ccc(O)cc2)NC(=O)[C@H](CO)NC(=O)[C@H](C(C)C)NC(=O)[C@H](CO)NC(=O)[C@H](CCCCN)NC(=O)[C@H](Cc2ccccc2)NC(=O)CSC[C@@H](C(=O)N(C)CC(N)=O)NC(=O)[C@H](Cc2c[nH]cn2)NC(=O)[C@H](CC(N)=O)NC(=O)[C@H](Cc2ccc(O)cc2)NC(=O)[C@H](Cc2ccc(O)cc2)NC(=O)[C@H](CCCCN)NC1=O ({CH2CO}-FKSVSYWG[NMeF]GRLKYYNHC[Sar]-NH2; thioether N-18) | 22 | half-life [1]: 270 min; half-life [3]: 174 min
CC(C)C[C@@H]1NC(=O)[C@H](CC(N)=O)NC(=O)CNC(=O)[C@H](Cc2ccccc2)N(C)C(=O)CNC(=O)[C@H](Cc2c[nH]c3ccccc23)NC(=O)[C@H](Cc2ccc(O)cc2)NC(=O)[C@H](CO)NC(=O)[C@H](C(C)C)NC(=O)[C@H](CO)NC(=O)[C@H](CO)NC(=O)[C@H](Cc2ccccc2)NC(=O)CSC[C@@H](C(=O)NCC(N)=O)NC(=O)[C@H](Cc2c[nH]cn2)NC(=O)[C@H](CC(N)=O)NC(=O)[C@H](Cc2ccc(O)cc2)NC(=O)[C@H](Cc2ccc(O)cc2)NC(=O)[C@H](C(C)C)NC1=O ({CH2CO}-FSSVSYWG[NMeF]GNLVYYNHCG-NH2; thioether N-18) | 6 | –
CC[C@H](C)[C@@H]1NC(=O)CNC(=O)[C@H](Cc2ccccc2)N(C)C(=O)CNC(=O)[C@H](Cc2c[nH]c3ccccc23)NC(=O)[C@H](Cc2ccc(O)cc2)NC(=O)[C@H](CCC(=O)O)NC(=O)[C@H](C(C)C)NC(=O)[C@H](CO)NC(=O)[C@H](CO)NC(=O)[C@H](Cc2ccccc2)NC(=O)CSC[C@@H](C(=O)NCC(N)=O)NC(=O)[C@H](Cc2cnc[nH]2)NC(=O)[C@H](CC(=O)O)NC(=O)[C@H](Cc2ccc(O)cc2)NC(=O)[C@H](Cc2c[nH]c3ccccc23)NC(=O)[C@H](CCC(=O)O)NC(=O)[C@H](CC(C)C)NC1=O ({CH2CO}-FSSVEYWG[NMeF]GILEWYDHCG-NH2; thioether N-18) | 34 | half-life [1]: > 4320 min; half-life [3]: > 4320 min; clearance [5]: 21.3 mL/min/kg; AUC at 6 h [6]: 0.786 µM·h
